Assay results reported in patent US20250002446A1, “Acetoacetate Based Ketals” (ARXADA AG, priority 2021, published 2025).

Test: Acetal cleavage in simulated gastric fluid (SGF)
Format: physicochemical
Details: 35-37° C., EtOAc extract analyzed by thin layer chromatography
Description: Acetal cleavage in simulated gastric fluid (SGF): propane-1,2,3-triyl tris(2-(2,4-dimethyl-1,3-dioxan-2-yl)acetate) (1 g, 2 mmol, 1 eq) was mixed with simulated gastric fluid (SGF) (5 g, 5 rel. eq.) at 35-37° C. After 30 min, 1 h and 2 h the mixture was sampled and extracted with EtOAc.

hydrolysis to 1,3-butanediol and propane-1,2,3-triyl tris(3-oxobutanoate) (after 30 min): a majority of the product had hydrolyzed
hydrolysis to 1,3-butanediol and propane-1,2,3-triyl tris(3-oxobutanoate) (after 1 h): hydrolyzation was complete
SMILES: CC1CCOC(C)(CC(=O)OCC(COC(=O)CC2(C)OCCC(C)O2)OC(=O)CC2(C)OCCC(C)O2)O1 (centres unmarked) [propane-1,2,3-triyl tris(2-(2,4-dimethyl-1,3-dioxan-2-yl)acetate)]
